The text below walks through data of patent US10399933B2, “Inhibitors of indoleamine-2,3-dioxygenase for the treatment of cancer” (BRISTOL-MYERS SQUIBB COMPANY, priority 2015, dated 2019).

The test concerns the target human IDO1 (Homo sapiens, UniProt P14902). The experiment in a line: Human IDO-1 inhibitory activity in HEK cells (human IDO1/HEK293 cellular assay). Type of test: cell-based. Details: expressed in transfected cells. As to conditions: HEK human IDO-1 cellular assay; 500 nM reference standard = 100% inhibition, DMSO = 0%. The procedure: They were cultured in medium (DMEM with 10% FBS) containing 1 mg/ml G418 for two weeks.
The human IDO1/HEK293 cells were seeded at 10,000 cells per 50 μL per well with RPMI/phenol red free media contains 10% FBS in a 384-well black wall clear bottom tissue culture plate (Matrix Technologies LLC) 100 nL of certain concentration of compound was then added to each well using ECHO liquid handling systems. The cells were incubated for 20 hours in 37° C. incubator with 5% CO2.
The compound treatments were stopped by adding trichloroacetic acid (Sigma-Aldrich) to a final concentration at 0.2%. The cell plate was further incubated at 50° C. for 30 minute. The equal volume supernatant (20 μL) and 0.2% (w/v) Ehrlich reagent (4-dimethylaminobenzaldehyde, Sigma-Aldrich) in glacial acetic acid were mixed in a new clear bottom 384-well plate. This plate was then incubated at room temperature for 30 minute. The absorbance at 490 nm was measured on Envision plate reader.

Some results are limits rather than exact numbers.

Sequence of human IDO1 (P14902 whole entry): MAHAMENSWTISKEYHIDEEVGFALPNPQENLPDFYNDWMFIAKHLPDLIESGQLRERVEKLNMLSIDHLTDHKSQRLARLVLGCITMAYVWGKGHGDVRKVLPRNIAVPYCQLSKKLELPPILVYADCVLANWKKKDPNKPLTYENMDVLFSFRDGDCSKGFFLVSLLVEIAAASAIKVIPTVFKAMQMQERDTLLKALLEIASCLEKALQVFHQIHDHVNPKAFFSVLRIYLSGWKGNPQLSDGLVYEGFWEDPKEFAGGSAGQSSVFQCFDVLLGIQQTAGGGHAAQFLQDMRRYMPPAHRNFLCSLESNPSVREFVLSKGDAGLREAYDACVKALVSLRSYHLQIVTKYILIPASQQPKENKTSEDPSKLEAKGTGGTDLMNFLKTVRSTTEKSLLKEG

The molecule `CCC(CC(=O)O)c1ccc(N(CC(C)C)CC(C)C)c(NC(=O)Cc2ccc(C)cc2)c1` (single isomer, unassigned) [Example 1103 E2, 3-(4-(Diisobutylamino)-3-(2-(p-tolyl)acetamido)phenyl)pentanoic Acid] came in with an IC50 of under 5 nM. In the case of `CCC(CC(=O)O)c1ccc(N(CC(C)C)C(C)C)c(Nc2ccc3nc(C)sc3c2)c1` (single isomer, unassigned) [Example 730, 3-(4-(isobutyl(isopropyl)amino)-3-((2-methylbenzo[d]thiazol-6-yl)amino)phenyl)pentanoic acid] it was over 50 nM; in that of `CCC(CC(=O)O)c1cc(F)c(N(CC(C)C)CC(C)C)c(NC(=O)Cc2ccc(Cl)cc2F)c1` (single isomer, unassigned) [Example 1092 E2], under 5 nM; in that of `CCC(CC(=O)O)c1ccc(N2CCC[C@H]2C(C)(C)O)c(NC(=O)Nc2cc(C)on2)c1` (single isomer, unassigned) [Example 831], over 50 nM. `CC[C@H](CC(=O)O)c1ccc(N2CCOC[C@@H]2C(C)C)c(Nc2ccc(F)cc2)c1` (single isomer, unassigned) [Example 90] registered an IC50 of under 50 nM. Consider `CCC(CC(=O)O)c1ccc(N2CCCC2C(C)(C)F)c(NC(=O)Nc2ccc(OC)cc2F)c1` [Example 787, 3-(3-(3-(2-fluoro-4-methoxyphenyl)ureido)-4-((S)-2-(2-(fluoropropan-2-yl)pyrrolidin-1-yl)phenyl)pentanoic acid], for which the IC50 is over 50 nM.
